According to PubChem BioAssay AID179 (DTP/NCI, 2004):
The source made the active and inactive calls.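 How the source made its calls: active means compounds giving half or more protection of infected cells from virus-caused growth loss, again on retest; inactive means the rest.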 Where a SMILES comes first, the peptide text is derived from it. The star is where a group is joined. Cbz = O=C(OCc1ccccc1)*

Test system: CEM cells HIV-1 protection, formazan growth assay
Experiment: NCI AIDS Antiviral Assay
Settings: for IC50: measured here: growth of uninfected CEM cells
Outline: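 Screen of anti-HIV-1 activity in human CEM cells using a formazan-based growth measurement at five drug concentrations. Hits with 50% or greater protection were repeated, and confirmation required reproducible complete protection.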

| Compound | EC50 [µM] | IC50 [µM] | outcome |
| --- | --- | --- | --- |
| Oc1c(OCc2nnc(CCCCCCCCc3nnc(COc4ccc5ccccc5c4O)n3Nc3ccccc3)n2Nc2ccccc2)ccc2ccccc12 | > 2 | > 2 |  |
| O=C(COc1ccc(Cl)cc1)c1ccccc1 | > 1000 | > 1000 |  |
| O=S(=O)(O)c1cc(N=Nc2cc(S(=O)(=O)O)c3cccnc3c2O)ccc1/C=C/c1ccc(N=Nc2cc(S(=O)(=O)O)c3cccnc3c2O)cc1S(=O)(=O)O.[Cu+2].[Na+] | > 10.7 | 1.2 |  |
| Cc1ccc(S(=O)(=O)NC(=O)C2S(=O)(=O)OCCOS2(=O)=O)cc1 | > 3890 | 77.6 |  |
| O=C(/C=C/c1cccc(Cl)c1)c1ccccc1 | > 11.2 | > 11.2 |  |
| CCOc1cnn(-c2ccccc2)c(=O)c1SCc1ccccc1 | > 77.6 | 56.2 |  |
| CO/N=C(\C(=O)OC(=NC1CCCCC1)NC1CCCCC1)c1csc(NC(c2ccccc2)(c2ccccc2)c2ccccc2)n1 | > 200 | 52.5 |  |
| Cc1ccc(S(=O)(=O)N/N=C/c2oc(-c3ccccc3Cl)c(-c3ccccc3Cl)c2[N+](=O)[O-])cc1 | > 7.08 | > 7.08 |  |
| CC1C(C)(C)C23CC12C1(OCCO1)C3Br (centres undefined) | > 200 | > 200 |  |
| Cc1cc(C)c(NS(=O)c2cccc(Cl)c2)c(C)c1 (centres undefined) | > 123 | > 123 |  |
| CC1=NN(c2ccccc2)C(=O)C1N=Nc1ccc(Br)c(C)c1 (centres undefined) |  |  | inactive |
| CCCC(=O)NC(Nc1cc(C)ccn1)(C(=O)OCC)C(F)(F)F (centres undefined) | 105 | 501 |  |
| Cc1nc(C)c(C(=O)NNC(N)=S)cc1C(=O)NNC(N)=S | > 200 | > 200 |  |
| CC(=O)N1C(Nc2cnc3ccccc3c2)CCN1c1ccccc1 (centres undefined) | > 200 | 17.8 |  |
| COc1cc2c3c(c1OC)C1(C=CC(=O)C=C1)CC3N(C(=O)OC(C)(C)C(Cl)(Cl)Cl)CC2 (centres undefined) |  |  | inactive |
| NC(CCOCCP(=O)(O)CCC1C=CC=CC1)C(=O)O (centres undefined) | > 200 | > 200 |  |
| C[N+](C)(C)CC(CC(=O)[O-])C1CC1 (centres undefined) | > 1350 | > 1350 |  |
| NC(=O)c1n[nH]n(-c2ccccc2)c1=O | > 200 | > 200 |  |
| C[N+](C)(C)CC1C2C=CC(C2)C1CO (centres undefined) | > 275 | > 275 |  |
| FC(F)(F)c1ccc(N=NN2CCCC2)cc1 | > 200 | 22.9 |  |
| CCOP(OCC)SSCn1nc2ccc3ccccc3n2c1=O | > 200 | 70.8 |  |
| CC1=C(C(=O)NCc2ccccc2)C(c2ccccc2[N+](=O)[O-])C(C(=O)NCc2ccccc2)=C(C)N1 | > 7.59 | > 7.59 |  |
| CCOC(=S)NP(=O)(NC(=S)OCC)NC(=S)OCC | > 200 | > 200 |  |

| Compound | EC50 [µM] | IC50 [µM] | outcome |
| --- | --- | --- | --- |
| O=c1nc(-c2ccccc2)scc1-c1ccccc1 | > 38 | > 38 |  |
| C/C(=N\NC(=O)c1ccncc1)c1cccc(C(F)(F)F)c1 | > 85.1 | > 85.1 |  |
| CSc1ccc(N2C(=O)C3c4[nH]c5ccccc5c4C4CCC(C(C)(C)C)CC4C3C2=O)cc1 (centres undefined) | > 2.19 | > 2.19 |  |
| O=C1/C(=C/c2ccccc2)N=C2Sc3c(nc[nH]c3=O)N12 |  |  | inactive |
| O=C(NCCN(CCNC(=O)c1cccc(O)c1O)CCNC(=O)c1cccc(O)c1O)c1cccc(O)c1O | > 200 | 3.39 |  |
| N#Cc1c(N)nc2c(N=Nc3ccccc3)c(N)nn2c1Nc1ccccc1 | > 200 | 9.55 |  |
| CC1(C)CNCC(C)(OCc2ccccc2)C(=O)NC(C)(C)CNCC(C)(OCc2ccccc2)C(=O)N1 (centres undefined) | 3.8 | 24.5 |  |
| CC(C)(C)OC(=O)N1N=NC2C1C1CC(OCc3ccccc3)(OCc3ccccc3)C2O1 (centres undefined) | > 15.8 | > 15.8 |  |
| Cc1ccc(S(=O)(=O)Nn2c(S)c(C#N)c(-c3ccc(N(C)C)cc3)c(C#N)c2=O)cc1 | > 200 | 7.76 |  |
| COc1cc(OC)c2nccc(NCCCN(C)C)c2c1[N+](=O)[O-] | > 200 | 93.3 |  |
| O=C1/C(=C/c2ccc3c(c2)OCCO3)CCC/C1=C\c1ccc2c(c1)OCCO2 | > 6.92 | > 6.92 |  |
| COc1ccccc1/C=C/C(=O)c1ccccc1 | > 57.5 | 11.2 |  |
| Cc1ccc2nc(Sc3c([N+](=O)[O-])ncn3C)[nH]c2c1 | > 5.01 | 4.79 |  |
| O=NN(CC1(O)OCC(O)C(O)C1O)C(Cc1c[nH]c2ccccc12)C(=O)O (centres undefined) |  |  | inactive |
| COc1ccc(N2C(=O)C(=O)N(c3ccc(N=Nc4ccccc4)cc3)C2=S)cc1 | > 200 | 11.7 |  |
| O=C1/C(=N\O)C2CCC1C2 (centres undefined) | > 363 | > 363 |  |
| ON=C1CCC(c2ccccc2)CC1 (centres undefined) |  |  | inactive |
| N#Cc1cc2c(n(C3OC(CO)C(O)C(O)C3O)c1=S)CCC2 (centres undefined) | > 200 | > 200 |  |
| Fc1cccc(F)c1C1SCc2nc3ccc(Cl)cc3n21 (centres undefined) | 4.07 | > 200 |  |
| Cc1cc(C)c2c(O)c(S(=O)(=O)c3ccc(Cl)cc3)c(=O)oc2c1 | > 200 | 77.6 |  |
| CCCCc1ccc(-n2sc3ncc(-c4ccccc4)cc3c2=O)cc1 | 95.5 | 117 |  |
| O=S(=O)(C/C(=N\O)c1ccccc1)c1ccccc1 | > 324 | 182 |  |
| O=[N+]([O-])c1cccc(S(=O)(=O)c2cccc([N+](=O)[O-])c2)c1 | > 200 | > 200 |  |

| Compound | EC50 [µM] | IC50 [µM] | outcome |
| --- | --- | --- | --- |
| CN(CC(O)C(O)CN(C)C(=S)S)C(=S)S (centres undefined) | > 661 | 170 |  |
| C/C=C/[C@H](O[Si](C)(C)C(C)(C)C)[C@@H](O)/C=C/C(=O)OCC | > 200 | 28.8 |  |
| CC1(C)c2ccccc2-c2nc3ccccc3cc2C1N1CCOCC1 (centres undefined) | > 200 | 41.7 |  |
| OCC(O)C(O)C(O)c1nn(-c2ccc(Cl)cc2)c2nc3cc(Cl)c(Cl)cc3nc12 (centres undefined) |  |  | inactive |
| CCCCCCCC1(N=[N+]=[N-])C(=O)Nc2ccccc2C1=O (centres undefined) | > 200 | 20 |  |
| COc1ccc(N2C(=O)C3c4[nH]c5ccc(C)cc5c4C4CCC(c5ccccc5)CC4C3C2=O)cc1 (centres undefined) |  |  | inactive |
| O=C1c2ccccc2C(=O)c2c(O)c(NCCCNCCO)cc(O)c21 |  |  | inactive |
| Ic1nc(-c2ccccc2)[nH]c1I |  |  | inactive |
| COc1ccc(OC)c(/C=C/c2cnnc3ccccc23)c1 | > 64.6 | 3.16 |  |
| OCCN1C(c2ccccc2)=CN2C=CSC21 (centres undefined) | > 200 | 29.5 |  |
| N#CC12CNCC1CN=N2 (centres undefined) | > 200 | > 200 |  |
| NC1=NCC(CN2CCCCC2)O1 (centres undefined) | > 200 | > 200 |  |
| CCO[C@@H]1N(C2CC(N=[N+]=[N-])C(CO)O2)C(=O)NC(=O)[C@@]1(C)Cl (some centres undefined) | > 200 | > 200 |  |
| c1ccc2c(c1)CCCN1CCc3ccccc3C21 (centres undefined) | > 200 | 51.3 |  |
| CN(C)c1ccc(CC2CCc3ccccc32)cc1 (centres undefined) | > 20.9 | > 20.9 |  |
| c1ccc(N/N=C2\NN=C(c3ccccc3)CS2)cc1 | > 66.1 | 35.5 |  |
| Oc1[nH]c2ccccc2c1N=NC(=S)N1CCCCC1 | > 200 | 1.02 |  |
| c1ccc(SC2(Sc3ccccc3)CCCC2)cc1 |  |  | inactive |
| CN1CC(C)(C)C(O)c2ccccc21 (centres undefined) | > 955 | 525 |  |
| O=C(c1ccccc1)C(O)(Cc1ccccc1)c1ccccc1 (centres undefined) | > 85.1 | 70.8 |  |
| COC(=O)CC1c2ccccc2N2C(=O)Cc3c([nH]c4ccccc34)C12 (centres undefined) | > 200 | 191 |  |
| CCN(CC)CCS(=O)c1c2cc(OC)ccc2nc2ccc(OC)cc12 (centres undefined) | > 200 | 3.39 |  |
| [O-][n+]1c(-c2ccccc2)c2nc3ccccc3nc2c2ccccc21 | > 39.8 | > 39.8 |  |

| Compound | EC50 [µM] | IC50 [µM] | outcome |
| --- | --- | --- | --- |
| NCCN.O=C([O-])C(=O)[O-].O=C([O-])C(=O)[O-].[Co+3].[K+] | > 372 | 269 |  |
| CC(C)/C(Cl)=N\OC(=O)NNc1ccccc1 | > 20 | 5.75 |  |
| CC1C2CC=CC(=O)[C@@]2(C)CCC12OCCO2 (some centres undefined) |  |  | inactive |
| O=C(O)c1cc(O)c(Br)c(O)c1N=Nc1ccc(/C=C/c2ccc(N=Nc3c(C(=O)O)cc(O)c(Br)c3O)cc2S(=O)(=O)O)c(S(=O)(=O)O)c1 | 166 | > 200 |  |
| CCOC(=O)C(=O)C(=O)NN(C)C1=NCCN1 | > 200 | > 200 |  |
| O=c1c2ccccc2sc2nc(CCl)nn12 | > 355 | 57.5 |  |
| CCOC(=O)CCN1C(=O)C(=O)N(c2ccc(OC)cc2)C1=S | > 200 | 31.6 |  |
| CN(C)c1ccc(C(c2c(O)c3ccccc3oc2=O)c2c(O)c3ccccc3oc2=O)cc1 | > 200 | 27.5 |  |
| CSc1nc(-c2ccc(Cl)cc2)c(C#N)c(=O)[nH]1 |  |  | inactive |
| CCOC(CN(C)C(=S)Nc1cccc2ccccc12)OCC | > 200 | 158 |  |
| Cc1cc(CO)c(O)c(CN(CCO)CCO)c1 | > 200 | 20.4 |  |
| CCN=C1NN=C(c2ccccc2)c2cc(Cl)ccc2N1 | > 120 | 21.9 |  |
| O=C1c2cscc2C(=O)c2cscc21 | > 2 | 0.339 |  |
| COc1ccc(N=C(C)C(C)=Nc2ccc(OC)cc2)cc1 |  |  | inactive |
| S=C(c1c[nH]c2ccccc12)N1CCCCC1 | > 200 | 44.7 |  |
| CN(C)CCNc1nc(-c2cccs2)cc(-c2cccs2)n1 | > 759 | 6.46 |  |
| OC1(c2ccccc2)N=C(c2ccccc2)c2ccccc2-n2cccc21 (centres undefined) | > 200 | > 200 |  |
| CC(=O)Oc1cc(C)c2c(c1)CCC1C3CCC(OC(C)=O)C3(C)CC(O[N+](=O)[O-])C21O (centres undefined) | > 200 | > 200 |  |
| COC(=O)CNC(=O)C(NC(=O)C1CCCN1C(=O)OCc1ccccc1)C(C)C (stereo not drawn) (Cbz-Pro-Val-Gly-OMe; configuration not given here) | > 224 | 37.2 |  |
| Cc1cccc(C2=NC(=C3CCCCC3)C(=O)O2)c1 | > 200 | 38 |  |
| c1cc2nnc1SCCCSc1ccc(nn1)SCCCSc1ccc(nn1)SCCCS2 | > 100 | > 100 |  |
| O=C1NC2c3c(I)sc(I)c3C(O)C2O1 (centres undefined) | > 200 | 141 |  |
